Assay results from patent publication US10150760B2, “Compounds for use in preparing heterocyclic triazole agonists of the APJ receptor” (AMGEN INC., priority 2016, dated 2018).

molecular target: human APJ receptor (Homo sapiens (Human), UniProt P35414); experiment: [35S]GTPγS binding assay on membranes from CHO cells stably expressing human APJ receptor; assay type: biochemical; settings: read-out: Activity hAPJ SPA EC50 IP
Protocol: The human APJ receptor was cloned by polymerase chain reaction and the gene encoding the receptor was subcloned in pFLAG-CMV™-3 expression vector (Sigma, Saint Louis, Mo. USA) in-house at Amgen. A GTPγS binding assay was performed on membranes prepared from CHO cells stably expressing human APJ receptor. The optimum experimental conditions for the concentrations of GDP, MgCl2, and NaCl in the assay buffer were initially determined. The assay was performed in assay buffer [20 mM HEPES, pH 7.5, 5 mM MgCl2, and 0.1% (w/v) BSA with 200 mM NaCl, 3 μM GDP] and membranes expressing human APJ receptor/well along with WGA PS beads. The reaction was initiated by addition of 0.2 nM [^35S]GTPγS (Perkin Elmer Life and Analytical Sciences, Waltham USA) in the absence or presence of various ligands and incubated at RT for 90 min. Nonspecific binding was determined in the presence of 100 μM GTPγS and was always less than 0.2% of total binding. All the results presented are means of several independent experiments and analyzed by non-linear regression methods using commercially available program Prism (GraphPad, San Diego, Calif.) to obtain EC50 detailed in Table 38.

human APJ receptor, sequence (P35414 whole entry): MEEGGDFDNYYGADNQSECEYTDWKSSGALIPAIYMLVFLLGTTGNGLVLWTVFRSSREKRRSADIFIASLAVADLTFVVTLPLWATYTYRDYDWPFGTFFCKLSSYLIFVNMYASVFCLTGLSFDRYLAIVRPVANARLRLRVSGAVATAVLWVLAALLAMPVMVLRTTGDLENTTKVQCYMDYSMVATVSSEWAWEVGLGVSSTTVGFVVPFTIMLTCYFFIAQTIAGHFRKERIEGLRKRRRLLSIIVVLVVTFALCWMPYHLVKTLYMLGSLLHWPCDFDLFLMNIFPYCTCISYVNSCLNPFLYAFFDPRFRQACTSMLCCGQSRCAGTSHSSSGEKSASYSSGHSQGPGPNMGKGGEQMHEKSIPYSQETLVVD

Compound	EC50
COc1ncnc(OC)c1-n1c(NS(=O)(=O)[C@@H](C)[C@H](C)c2ncc(Cl)cn2)nnc1[C@H]1CCCOC1 (single isomer, unassigned) [Example 101.0, (2S,3R)-3-(5-chloropyrimidin-2-yl)-N-(4-(4,6-dimethoxypyrimidin-5-yl)-5-((S)-tetrahydro-2H-pyran-3-yl)-4H-1,2,4-triazol-3-yl)butane-2-sulfonamide or (2S,3R)-3-(5-chloropyrimidin-2-yl)-N-(4-(4,6-dimethoxypyrimidin-5-yl)-5-((R)-tetrahydro-2H-pyran-3-yl)-4H-1,2,4-triazol-3-yl)butane-2-sulfonamide]	260 nM
(1R,2)S-N-(4-(2,6-dimethoxyphenyl)-5-((R)-1,4-dioxan-2-yl)-4H-1,2,4-triazol-3-yl)-1-methoxy-1-(5-methylpyrimidin-2-yl)propane-2-sulfonamide or (1R,2S)-N-(4-(2,6-dimethoxyphenyl)-5-((S)-1,4-dioxan-2-yl)-4H-1,2,4-triazol-3-yl)-1-methoxy-1-(5-methylpyrimidin-2-yl)propane-2-sulfonamide [Example 201.0]	31 nM
Cc1cnc([C@@H](C)[C@H](C)S(=O)(=O)Nc2nnc([C@H]3CCCO3)n2-c2c(F)cccc2F)nc1 [Example 19.0, (2S,3R)-N-(4-(2,6-difluorophenyl)-5-((2R)-tetrahydro-2-furanyl)-4H-1,2,4-triazol-3-yl)-3-(5-methyl-2-pyrimidinyl)-2-butanesulfonamide]	60 nM
COc1cccc(OC)c1-n1c(NS(=O)(=O)[C@@H](C)[C@H](OC)c2ncc(Cl)cn2)nnc1[C@H]1CCC(C)(C)O1 (single isomer, unassigned) [Example 108.0, (1R,2S)-1-(5-chloropyrimidin-2-yl)-N-(4-(2,6-dimethoxyphenyl)-5-((S)-5,5-dimethyltetrahydrofuran-2-yl)-4H-1,2,4-triazol-3-yl)-1-methoxypropane-2-sulfonamide or (1R,2S)-1-(5-chloropyrimidin-2-yl)-N-(4-(2,6-dimethoxyphenyl)-5-((R)-5,5-dimethyltetrahydrofuran-2-yl)-4H-1,2,4-triazol-3-yl)-1-methoxypropane-2-sulfonamide]	25 nM
(1R,2S)-1-(5-chloropyrimidin-2-yl)-N-(5-((S)-5,5-dimethyltetrahydrofuran-2-yl)-4-(tetrahydro-2H-pyran-4-yl)-4H-1,2,4-triazol-3-yl)-1-methoxypropane-2-sulfonamide or (1R,2S)-1-(5-chloropyrimidin-2-yl)-N-(5-((R)-5,5-dimethyltetrahydrofuran-2-yl)-4-(tetrahydro-2H-pyran-2-yl)-4H-1,2,4-triazol-3-yl)-1-methoxypropane-2-sulfonamide [Example 221.0]	560 nM
COc1cccc(OC)c1-n1c(NS(=O)(=O)[C@@H](C)[C@H](OC)c2ncc(C)cn2)nnc1[C@@H]1CCNC1 (mixture of isomers) [Example 45.0, (1R,2S)-N-(4-(2,6-Dimethoxyphenyl)-5-((R)-pyrrolidin-3-yl)-4H-1,2,4-triazol-3-yl)-1-methoxy-1-(5-methylpyrimidin-2-yl)propane-2-sulfonamide and (1R,2S)-N-(4-(2,6-dimethoxyphenyl)-5-((S)-pyrrolidin-3-yl)-4H-1,2,4-triazol-3-yl)-1-methoxy-1-(5-methylpyrimidin-2-yl)propane-2-sulfonamide]	510 nM
COc1cccc(OC)c1-n1c(NS(=O)(=O)[C@@H](C)[C@H](OC)c2ncc(Cl)cn2)nnc1[C@H]1CCCOC1 (single isomer, unassigned) [Example 64.0, (1R,2S)-1-(5-chloropyrimidin-2-yl)-N-(4-(2,6-dimethoxyphenyl)-5-((R)-tetrahydro-2H-pyran-3-yl)-4H-1,2,4-triazol-3-yl)-1-methoxypropane-2-sulfonamide or (1R,2S)-1-(5-chloropyrimidin-2-yl)-N-(4-(2,6-dimethoxyphenyl)-5-((S)-tetrahydro-2H-pyran-3-yl)-4H-1,2,4-triazol-3-yl)-1-methoxypropane-2-sulfonamide]	29 nM
